Measured values as given in PMC11237553, “De novo synthetic antimicrobial peptide design with a recurrent neural network” (Protein Science : A Publication of the Protein Society, 2024).

System: Escherichia coli ATCC 25922
Test: Broth microdilution antimicrobial susceptibility testing (MIC/MBC)
Assay type: cell-based
Conditions: broth microdilution (CLSI, adapted for cationic AMPs), Mueller‐Hinton Broth, 5 ± 3 × 10^5 CFU/mL, 20–24 h at 37°C, test range 128 down to 0.25 μg/mL; lowest effective concentration range in three independent experiments in duplicate, one maximum and one minimum data point dropped
Experimental: Bacteria from frozen stocks were streaked onto non‐selective Columbia blood agar with 5% sheep blood (Oxoid) and incubated for 18–24 h at 37°C. The following day, 2–4 colonies were streaked onto a new agar plate and incubated for 18–24 h at 37°C to ensure uniform colony health prior to the assay. A standardized bacterial inoculum was prepared by suspending isolated colonies in Mueller‐Hinton Broth (MHB; Sigma‐Aldrich, St. Louis, MO, USA). The suspension was adjusted to an optical density of 0.08–0.1 at 600 nm, equivalent to a 0.5 McFarland standard of approximately 1–2 × 10^8 CFU/mL (CFU: colony forming units). The inoculum was then diluted 1:250 to achieve a final concentration of 5 ± 3 × 10^5 CFU/mL. The target bacterial density was confirmed by examining the total viability counts from the final inoculum.
Candidate AMPs were purchased from and synthesized by GenScript (Piscataway, NJ, USA). These were received in lyophilized format and stored at −20°C, and were suspended in sterile ultrapure water prior to testing.

Sequence | MIC, E. coli ATCC 25922
FLPKIAGKAAKKLPKIFCKITKKC [DeNo1019] | 16 µg/mL
FLPKIFKKIAKKL [DeNo1045] | 64 µg/mL
KIFGKILKKLLKKLLKKLLKKL [DeNo1013] | 16 µg/mL
KLPSIIKAAAKALPKLF [DeNo1034] | 16 to 32 µg/mL
MLPSIAGAAAKGLPKLFCKITKKC [DeNo1038] | 64 µg/mL
RLPSIIPGIAGKLGGLLGGLLKGL [DeNo1027] | 32 µg/mL
TLPDVAKNVAKNVAKTVLDTLKCKITGKC [DeNo1020] | 64 to 128 µg/mL

Same assay, conditions: concentration killing 99.9% of the inoculum, plated from MIC wells, 24 h at 37°C; range in three independent experiments in duplicate, one maximum and one minimum data point dropped

Sequence | MBC, E. coli ATCC 25922
FLPKIAGKAAKKLPKIFCKITKKC [DeNo1019] | 16 µg/mL
FLPKIFKKIAKKL [DeNo1045] | 64 to 128 µg/mL
KIFGKILKKLLKKLLKKLLKKL [DeNo1013] | 16 to 32 µg/mL
KLPSIIKAAAKALPKLF [DeNo1034] | 16 to 64 µg/mL
MLPSIAGAAAKGLPKLFCKITKKC [DeNo1038] | 64 to 128 µg/mL
RLPSIIPGIAGKLGGLLGGLLKGL [DeNo1027] | 32 to 64 µg/mL
TLPDVAKNVAKNVAKTVLDTLKCKITGKC [DeNo1020] | 64 to 128 µg/mL
